Reference: patent US20060142359A1, “Cyclopenta[c]isoxazole-3-amines used as protective agents for materials” (priority 2002, published 2006)
Converted amounts (≈) assume the structure as drawn. Read-outs that look alike come from different tables or passages of the source. Blank lines part the entries; values can stand above or below the compound they belong to.

Assays:
[1] = test system: Pseudomonas aeruginosa NCIB 6749; test: MIC antibacterial action (Use Example D, analogous to A); format: cell-based; conditions: NCIB6749, 72 h
Experimental: (§1) A defined Landy Agar was admixed with active compounds according to the invention in concentrations of […]. The MIC was determined after 3 days of storage at 28° C. and 60-70% relative atmospheric humidity. The MIC is the lowest concentration of active compound at which there is no colonization by the microbial species used.
Analogously to Use Example A, the minimum inhibitory concentrations (MIC) of active compounds according to the invention were determined. Both on chemically defined medium and on complex medium, the compounds tested had minimum inhibitory concentrations </=100 ppm against Pseudomonas aeruginosa NCIB 6749: […]

[2] = test system: Chaetomium globosum; test: MIC against fungi on malt extract agar (Use Example B); format: cell-based; conditions: 504 h, 3 weeks at 28° C., 60-70% relative atmospheric humidity, read-out: Minimum inhibitory concentrations Chaetomium globosum
Experimental: (§2) The MIC was determined after 3 weeks of storage at 28° C. and 60-70% relative atmospheric humidity. The MIC is the lowest concentration of active compound at which there is no colonization by the microbial species used.

[3] = test system: Penicillium brevicaule; test: as above; format: cell-based; conditions: 504 h, 3 weeks at 28° C., 60-70% relative atmospheric humidity, read-out: Minimum inhibitory concentrations Penicillium brevicaule
Experimental: as §2

[4] = test system: Aspergillus niger; test: as above; format: cell-based; conditions: 504 h, 3 weeks at 28° C., 60-70% relative atmospheric humidity, read-out: Minimum inhibitory concentrations Aspergillus niger
Experimental: as §2

[5] = test system: Pseudomonas aeroginosa; test: MIC against bacteria on Landy agar (Use Example A); format: cell-based; conditions: 72 h, 3 days at 28° C., 60-70% relative atmospheric humidity, read-out: Minimum inhibitory concentrations Pseudomonas aeroginosa
Experimental: as §1

[6] = test system: Bacillus subtilis; test: MIC against bacteria on Landy agar (Use Example A); format: cell-based; conditions: 72 h, 3 days at 28° C., 60-70% relative atmospheric humidity, read-out: Minimum inhibitory concentrations Bacillus subtilis
Experimental: as §1

[7] = test system: Rhodotorula rubra; test: MIC antifungal action (Use Example C, analogous to B); format: cell-based; conditions: analogously to Use Example B, read-out: minimum inhibitory concentrations (MIC) Rhodotorula rubra
Experimental: (§3) An agar which had been prepared using malt extract was admixed with active compounds according to the invention in concentrations of from 0.1 mg/l to 5000 mg/l. The MIC was determined after 3 weeks of storage at 28° C. and 60-70% relative atmospheric humidity. The MIC is the lowest concentration of active compound at which there is no colonization by the microbial species used. Analogously to Use Example B, the minimum inhibitory concentrations (MIC) of active compounds according to the invention were determined. Against fungi such as Fusarium solani, Geotrichum candidum and Rhodotorula rubra the compounds tested had minimum inhibitory concentrations of <500 ppm: […]

[8] = test system: Geotrichum candidum; test: as above; format: cell-based; conditions: analogously to Use Example B, read-out: minimum inhibitory concentrations (MIC) Geotrichum candidum
Experimental: as §3

[9] = test system: Fusarium solani; test: as above; format: cell-based; conditions: analogously to Use Example B, read-out: minimum inhibitory concentrations (MIC) Fusarium solani
Experimental: as §3

[10] = chemically defined medium, read-out: MIC values (chem.def. medium)
[11] = complex medium, read-out: MIC values (complex medium)

Structure (SMILES): COc1ccc(/C=N\c2onc3c2CCC3)cc1 [Example 31]
melting point: 249 °C

Structure (SMILES): O=C(Nc1onc2c1CCC2)C(F)(F)F [Example 14]
MIC [2]: 100 µg/mL (≈ 454 µM)
MIC [3]: 100 µg/mL (≈ 454 µM)
MIC [4]: 100 µg/mL (≈ 454 µM)
MIC [5]: < 100 µg/mL
MIC [6]: < 40 µg/mL
melting point: 118 °C

Structure (SMILES): Fc1ccc(/C=N\c2onc3c2CCC3)cc1 [Example 28]
melting point: > 260 °C

Structure (SMILES): CC(C)S(=O)(=O)Nc1onc2c1CCC2 [Example 24]
melting point: 91 °C

Structure (SMILES): O=C(Nc1ccccc1)Nc1onc2c1CCC2 [Example 5, N-(5,6-dihydro-4H-cyclopenta[c]isoxazol-3-yl)-N′-phenylurea]
MIC [2]: 100 µg/mL (≈ 411 µM)
MIC [3]: 100 µg/mL (≈ 411 µM)
MIC [4]: 200 µg/mL (≈ 822 µM)
MIC [5]: < 100 µg/mL
MIC [6]: < 40 µg/mL
melting point: 202 °C

Structure (SMILES): O=C(Nc1ccc(Cl)cc1)Nc1onc2c1CCC2 [Example 21]
melting point: 225 °C

Structure (SMILES): CNc1onc2c1CCC2 [Example 2, N-methyl-5,6-dihydro-4H-cyclopenta[c]isoxazole-3-amine]
melting point: 52 °C

Structure (SMILES): Cc1ccc(NC(=O)Nc2onc3c2CCC3)cc1 [Example 20]
melting point: 218 °C

Structure (SMILES): C(=N/c1onc2c1CCC2)/c1ccccc1 [Example 8, N-(5,6-dihydro-4H-cyclopenta[c]isoxazol-3-yl)-N-(-phenylmethylidene)amine]
melting point: 166 °C

Structure (SMILES): FC(F)(F)c1ccc(/C=N\c2onc3c2CCC3)cc1 [Example 32]
melting point: > 260 °C

Structure (SMILES): O=C(c1ccco1)N(C(=O)c1ccco1)c1onc2c1CCC2 [Example 17]
melting point: 150 °C

Structure (SMILES): CC(C)(C)C(=O)Nc1onc2c1CCC2 [Example 3, N-(5,6-dihydro-4H-cyclopenta[c]isoxazol-3-yl)-2,2-dimethylpropanamide]
melting point: 113 °C

Structure (SMILES): Clc1ccc(/C=N\c2onc3c2CCC3)cc1 [Example 29]
melting point: 190 °C

Structure (SMILES): Cc1ccc(NC(=O)Nc2onc3c2CCC3)c(C)c1 [Example 22]
melting point: 230 °C

Structure (SMILES): S=C(Nc1ccccc1)Nc1onc2c1CCC2 [Example 23]
melting point: 146 °C

Structure (SMILES): Cc1ccc(/C=N\c2onc3c2CCC3)cc1 [Example 30]
melting point: 238 °C

Structure (SMILES): O=S(=O)(Nc1onc2c1CCC2)c1ccccc1 [Example 7, N-(5,6-dihydro-4H-cyclopenta[c]isoxazol-3-yl)benzenesulfonamide]
MIC [5]: 400 µg/mL (≈ 1510 µM)
MIC [6]: 100 µg/mL (≈ 378 µM)
melting point: 132 °C

Structure (SMILES): Nc1onc2c1CCC2 [Example 1, 5,6-dihydro-4H-cyclopenta[c]isoxazole-3-amine]
MIC [2]: < 100 µg/mL
MIC [3]: < 100 µg/mL
MIC [4]: < 100 µg/mL
MIC [5]: < 100 µg/mL
MIC [6]: < 40 µg/mL

Structure (SMILES): O=C(Nc1onc2c1CCC2)NC1CCCCC1 [Example 19]
MIC [5]: 400 µg/mL (≈ 1600 µM)
MIC [6]: 100 µg/mL (≈ 401 µM)
melting point: 152 °C

Structure (SMILES): C(=N/c1onc2c1CCC2)/c1ccccn1 [Example 33]
melting point: 167 °C

Structure (SMILES): Cc1ccc(S(=O)(=O)Nc2onc3c2CCC3)cc1 [Example 25]
melting point: 112 °C

Structure (SMILES): CC(C)C(=O)Nc1onc2c1CCC2 [Example 12]
melting point: 116 °C

Continued, values first:

MIC [1, 10]: 20 µg/mL (≈ 51 µM)
MIC [1, 11]: 20 µg/mL (≈ 51 µM)
Structure (SMILES): O=C(OCc1ccccc1)N(C(=O)OCc1ccccc1)c1onc2c1CCC2 [Example 40]

melting point: 125 °C
Structure (SMILES): CCCCC/C=N\c1onc2c1CCC2 [Example 27]

MIC [1, 10]: 10 µg/mL (≈ 21.1 µM)
MIC [1, 11]: 5 µg/mL (≈ 10.5 µM)
Structure (SMILES): O=C(OCC(Cl)(Cl)Cl)N(C(=O)OCC(Cl)(Cl)Cl)c1onc2c1CCC2 [Example 36]

MIC [1, 10]: 10 µg/mL (≈ 23.5 µM)
MIC [1, 11]: 5 µg/mL (≈ 11.7 µM)
MIC [7]: 500 µg/mL (≈ 1170 µM)
MIC [8]: 500 µg/mL (≈ 1170 µM)
MIC [9]: 200 µg/mL (≈ 469 µM)
Structure (SMILES): O=C(OCCBr)N(C(=O)OCCBr)c1onc2c1CCC2 [Example 42]

MIC [1, 10]: 100 µg/mL (≈ 229 µM)
MIC [1, 11]: 50 µg/mL (≈ 115 µM)
Structure (SMILES): CCCCC(CC)COC(=O)N(C(=O)OCC(CC)CCCC)c1onc2c1CCC2 (stereo not drawn) [Example 34]

MIC [1, 10]: 10 µg/mL (≈ 30.8 µM)
MIC [1, 11]: 5 µg/mL (≈ 15.4 µM)
Structure (SMILES): CC(C)COC(=O)N(C(=O)OCC(C)C)c1onc2c1CCC2 [Example 37]

MIC [2]: 100 µg/mL (≈ 378 µM)
MIC [3]: 200 µg/mL (≈ 757 µM)
MIC [4]: > 400 µg/mL
MIC [5]: < 100 µg/mL
MIC [6]: 100 µg/mL (≈ 378 µM)
Structure (SMILES): CCCC(=O)N(C(=O)CCC)c1onc2c1CCC2 [Example 15]

MIC [1, 10]: 10 µg/mL (≈ 29.7 µM)
MIC [1, 11]: 5 µg/mL (≈ 14.8 µM)
MIC [7]: 200 µg/mL (≈ 593 µM)
MIC [8]: 500 µg/mL (≈ 1480 µM)
MIC [9]: 200 µg/mL (≈ 593 µM)
Structure (SMILES): O=C(OCCCl)N(C(=O)OCCCl)c1onc2c1CCC2 [Example 41]

MIC [1, 10]: 10 µg/mL (≈ 34.2 µM)
MIC [1, 11]: 10 µg/mL (≈ 34.2 µM)
Structure (SMILES): C=C(C)OC(=O)N(C(=O)OC(=C)C)c1onc2c1CCC2 [Example 35]

melting point: 93 °C
Structure (SMILES): CCCCNC(=S)Nc1onc2c1CCC2 [Example 6, N-butyl-N′-(5,6-dihydro-4H-cyclopenta[c]isoxazol-3-yl)thiourea]

melting point: 35 °C
Structure (SMILES): CC(C)CC(=O)N(C(=O)CC(C)C)c1onc2c1CCC2 [Example 16]

MIC [1, 10]: 20 µg/mL (≈ 68.4 µM)
MIC [1, 11]: 10 µg/mL (≈ 34.2 µM)
Structure (SMILES): C=CCOC(=O)N(C(=O)OCC=C)c1onc2c1CCC2 [Example 43]

MIC [1, 10]: 50 µg/mL (≈ 189 µM)
MIC [1, 11]: 20 µg/mL (≈ 75.7 µM)
MIC [7]: 100 µg/mL (≈ 378 µM)
MIC [8]: 100 µg/mL (≈ 378 µM)
MIC [9]: 50 µg/mL (≈ 189 µM)
Structure (SMILES): C=COC(=O)N(C(=O)OC=C)c1onc2c1CCC2 [Example 38]
